Data as given in article PMC3445516 (PLoS ONE, 2012).

Target: T1, PKD1 (Homo sapiens, UniProt Q15139)
T1 construct: purchased Enzo Life sciences (Farmingdale, NY)
Test: Kinetic analysis, Lineweaver-Burk plots (ATP competition)
Assay type: biochemical
Details: not given
Protocol: (§1) PMA induces PKC-dependent phosphorylation of Ser744/748 (S^744/748) in the activation loop followed by autophosphorylation of PKD1 on Ser916 (S^916) in the C-terminus, [31]. The catalytic activity of PKD1 correlates well with the level of phosphorylation at S^916 [31].
(§2) Figure 5 In vitro IC50, cellular activity, and mode of action of representative compounds. […] IC50 values were calculated based on the dose-response curve. Data are represented as mean ± SEM of 3 independent experiments. […] Cell lysates were subjected to immunoblotting for pS^916-PKD1 and pS^744/748-PKD1. Tubulin was blotted as loading control. The experiments were repeated three times and representative blots are shown. C.

mode of inhibition with respect to ATP | SMILES
competitive with respect to ATP | CNC1=NC(=O)/C(=C/c2ccc3ncccc3c2)S1 [Compound 209]

System: PKD1 in LNCaP prostate cancer cells
Test: not given
Design: method as in PMID 18829454, PMID 22267986, PMID 21617763, PMID 20444281, PMID 21998636
Details: cited from earlier work

SMILES | suppression of PKD1 autophosphorylation at Ser916 | inhibition of phorbol ester-induced endogenous PKD1 activation
O=C1NCCCc2c1oc1ccc(O)cc21 [CID755673] | low micromolar range | –
CCN1/C(=C/C(C)=O)Sc2ccc(OC)cc21 [CID1893668] | – | in a concentration-dependent manner
O=C(Nc1ccc(CN2CCOCC2)cc1)c1ccc(-c2cccc(Cl)c2)o1 [CID2011756] | – | in a concentration-dependent manner
Cc1cc(NCCCN)nc(-c2ccccc2O)n1 [CID5389142] | – | in a concentration-dependent manner
O=C1NCCSc2c1sc1ccc(O)cc21 [kb-NB142-70] | low micromolar range | –

Target: T2, recombinant GST-tagged human protein kinase D1 (PKD1) (Homo sapiens, UniProt Q15139)
T2 construct: purchased Enzo Life sciences (Farmingdale, NY)
T2 sequence (Q15139 1-912): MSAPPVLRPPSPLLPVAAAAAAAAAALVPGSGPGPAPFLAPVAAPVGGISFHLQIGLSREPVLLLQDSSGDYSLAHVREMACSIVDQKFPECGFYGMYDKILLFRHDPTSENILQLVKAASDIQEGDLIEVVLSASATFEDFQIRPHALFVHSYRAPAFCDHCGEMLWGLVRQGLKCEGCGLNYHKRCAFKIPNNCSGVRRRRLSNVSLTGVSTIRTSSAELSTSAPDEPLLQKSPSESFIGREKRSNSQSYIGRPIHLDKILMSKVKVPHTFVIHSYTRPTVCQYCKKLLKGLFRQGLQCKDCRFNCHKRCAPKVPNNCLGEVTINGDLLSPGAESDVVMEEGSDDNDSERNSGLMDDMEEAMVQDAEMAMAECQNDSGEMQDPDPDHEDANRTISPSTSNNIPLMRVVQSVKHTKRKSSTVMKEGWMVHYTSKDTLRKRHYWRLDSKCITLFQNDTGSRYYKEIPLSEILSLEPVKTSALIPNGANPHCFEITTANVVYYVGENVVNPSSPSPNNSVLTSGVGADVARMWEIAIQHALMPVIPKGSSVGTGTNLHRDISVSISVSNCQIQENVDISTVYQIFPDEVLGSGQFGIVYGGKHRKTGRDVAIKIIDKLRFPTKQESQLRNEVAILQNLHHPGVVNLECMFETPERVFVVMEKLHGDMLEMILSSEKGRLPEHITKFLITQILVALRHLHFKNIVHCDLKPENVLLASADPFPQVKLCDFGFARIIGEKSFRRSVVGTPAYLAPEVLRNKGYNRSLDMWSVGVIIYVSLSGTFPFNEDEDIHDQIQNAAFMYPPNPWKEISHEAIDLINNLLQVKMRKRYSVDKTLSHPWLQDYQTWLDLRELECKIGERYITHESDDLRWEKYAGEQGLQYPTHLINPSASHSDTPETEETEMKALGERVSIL
Test: In vitro radiometric PKD1 kinase assay
Assay type: biochemical
Details: 1 µM, triplicate determinations; read-out: Inhibition of PKD1
Protocol: All compounds were given distinct UPCMLD (University of Pittsburgh Center for Chemical Methodologies and Library Development) IDs and were then assigned numerical IDs for convenient data display. Evaluation of each compound was carried out in triplicate at a single concentration (1 µM). Our previously described PKD1 inhibitor, kb-NB142-70, and DMSO (solvent alone) were used as positive and negative controls, respectively. Percent residual kinase activity was calculated based on that of the negative control (DMSO).
Kinase active recombinant GST-tagged human protein kinase D1 (PKD1) was obtained from Enzo Life sciences (Farmingdale, NY). DMSO was purchased from Sigma. Recombinant PKCα, PKCδ and CAMKIIα were obtained from SignalChem (Richmond, BC, Canada). ATP was purchased from Fisher Scientific. HDAC5 substrate peptide was synthesized by Biobasic Canada Inc. (Markham, ON). Myelin basic protein 4–14 was purchased from AnaSpec Inc. (Fremont, CA). The targeted kinase inhibitor library was obtained from Hoffmann-La Roche, Inc.
1.2 µg of HDAC-5 was used as substrate in the reaction. Phosphorylation of HDAC5 was detected in a kinase reaction having 1 µCi [γ-^32P] […] The reaction was incubated at 30° for 10 minutes and 25 µL of the reaction was spotted on Whatman P81 filter paper. The filter paper was washed 3 times in 0.5% phosphoric acid, air dried and counted using Beckman LS6500 multipurpose scintillation counter. Percent PKD1 inhibition was graphed using GraphPad Prism software 5.0.

inhibition at 1 µM | SMILES
57% | O=C1Nc2ccc(F)cc2/C1=C/c1ccc[nH]1 [Compound 4]
55% | COc1cc[nH]c1/C=C1\C(=O)Nc2ccccc21 [Compound 5]
80% | COc1cc[nH]c1/C=C1\C(=O)Nc2ccc(F)c(C#CC3(O)CCOCC3)c21 [Compound 13]
97% | COc1cc[nH]c1/C=C1\C(=O)Nc2ccc(F)c(C#CC3(O)CCNCC3)c21 [Compound 15]
95% | CN[C@H](C#Cc1c(F)ccc2c1/C(=C/c1[nH]ccc1OC)C(=O)N2)CO [Compound 16]
97% | COc1cc[nH]c1C=C1C(=O)Nc2ccc(F)c(C#CC(O)C(N)C(C)O)c21 (centres unmarked) [Compound 17]
54% | Cn1cc(C2=C(c3cccc4ccccc34)C(=O)NC2=O)c2ccccc21 [Compound 25]
65% | CSc1c(C2=C(c3cn(C)c4ccccc34)C(=O)NC2=O)c2ccccc2n1C [Compound 30]
65% | Cn1cc(C2=C(c3cn(CCCO)c4ccccc34)C(=O)NC2=O)c2ccccc21 [Compound 34]
93% | COc1cc[nH]c1/C=C1\C(=O)Nc2ccc([N+](=O)[O-])c(N3CC[C@@H](O)C3)c21 [Compound 102]
58% | OCCn1c(-c2ccncc2)c(-c2ccc(F)cc2)c2ncccc21 [Compound 123]
62% | Cc1cc(C)c2c(n1)sc1c(N)ncnc12 [Compound 172]
55% | O=C1N=C(NCc2ccccc2)S/C1=C\c1ccc2ncccc2c1 [Compound 178]
49% | O=C1N=C(N[C@H](CO)Cc2ccccc2)S/C1=C\c1ccc2ncccc2c1 [Compound 190]
62% | O=C1N=C(N[C@@H](CO)Cc2ccccc2)S/C1=C\c1ccc2ncccc2c1 [Compound 198]
85% | O=C1N=C(N[C@H](CO)c2ccccc2)S/C1=C\c1ccc2ncccc2c1 [Compound 203]
82% | NC1=NC(=O)/C(=C/c2ccc3ncccc3c2)S1 [Compound 205]
64% | CNC1=NC(=O)/C(=C/c2ccc3ncccc3c2)S1 [Compound 209]

Same assay, conditions: dose-response, mean ± SEM of 3 independent experiments

IC50 | SMILES
562 nM | CNC1=NC(=O)/C(=C/c2ccc3ncccc3c2)S1 [Compound 209]

Same assay, conditions: read-out: Inhibition of PKD1

inhibition at 1 µM | SMILES
94% | CNCC#Cc1c(F)ccc2c1/C(=C/c1[nH]ccc1OC)C(=O)N2 [Compound 11]
77% | COc1ccc(O)c(C(=O)c2ccc(C(=O)O[C@@H]3CCCNC[C@H]3NC(=O)c3ccncc3)cc2)c1F [Compound 100]
86% | O=C1Nc2ccc(F)c3c(OCCO)cc(-c4ccc[nH]4)c1c23 [Compound 101]
65% | COc1cccc(C(=O)c2sc(Nc3ccc(N4CCN(C(C)C)CC4)cc3)nc2N)c1 [Compound 104]
86% | Fc1ccc(-c2c(-c3ccncc3)[nH]c3cccnc23)cc1 [Compound 116]
55% | Cn1c(-c2ccncc2)c(-c2ccc(F)cc2)c2ncccc21 [Compound 121]
78% | COc1ccc(O)c(C(=O)c2ccc(C(=O)N[C@@H]3CCCNC[C@H]3NC(=O)c3ccncc3)cc2)c1F [Compound 175]

Target: T3, endogenous PKD1 in LNCaP prostate cancer cells (Homo sapiens, UniProt Q15139)
T3 construct: endogenous in cells; host or cells: LNCaP prostate cancer cells
T3 sequence (Q15139 1-912): T2 sequence (Q15139 1-912)
Test: PMA-induced activation of PKD1 in LNCaP cells (immunoblot pS916 / pS744/748)
Assay type: cell-based
Details: PMA 10 nM
Protocol: as §1, §2

effect on PKC-induced transphosphorylation at S744/748 | SMILES
did not affect | CNC1=NC(=O)/C(=C/c2ccc3ncccc3c2)S1 [Compound 209]

Same assay, conditions: PMA 10 nM, densitometry of pS916-PKD1 levels, read-out: cellular IC50 for inhibition of PKD1

IC50 | SMILES
18200 nM | CNC1=NC(=O)/C(=C/c2ccc3ncccc3c2)S1 [Compound 209]

System: PKD1
Test: not given
Design: method as in PMID 18829454, PMID 22267986, PMID 21617763, PMID 20444281, PMID 21998636
Details: previous HTS assays; cited from earlier work

SMILES | IC50
O=C1NCCCc2c1oc1ccc(O)cc21 [CID755673] | 182 nM
CCN1/C(=C/C(C)=O)Sc2ccc(OC)cc21 [CID1893668] | 1700 nM
O=C(Nc1ccc(CN2CCOCC2)cc1)c1ccc(-c2cccc(Cl)c2)o1 [CID2011756] | 3200 nM
Cc1cc(NCCCN)nc(-c2ccccc2O)n1 [CID5389142] | 1500 nM
O=C1NCCSc2c1sc1ccc(O)cc21 [kb-NB142-70] | 28.3 nM

Same assay, conditions: previous work; cited from earlier work

SMILES | inhibition of PKD1 in vitro
O=C1NCCCc2c1oc1ccc(O)cc21 [CID755673] | low nanomolar range
O=C1NCCSc2c1sc1ccc(O)cc21 [kb-NB142-70] | low nanomolar range

Target: PKCδ (Homo sapiens, UniProt Q05655)
Test: In vitro radiometric PKC kinase assay
Assay type: biochemical
Design: purchased SignalChem (Richmond, BC, Canada)
Details: 10 µM; read-out: inhibition of PKCδ
Protocol: In this study, we counter-screened the twenty-eight PKD1 inhibitory agents for inhibition of PKCα, PKCδ and CAMKIIα in order to get an initial profile for the potential PKD selectivity, since these are the functionally most closely related kinases. The compounds were examined at 0.1, 1 and 10 µM concentration. […] Next, the inhibitory activity for CAMKIIα was examined.
The PKC kinase assay was carried out by co-incubating 1 µCi [γ-^32P]ATP, 20 µM ATP, 50 ng of purified PKCα or PKCδ and 5 µg of myelin basic protein 4–14, 0.25 mg/mL bovine serum albumin, 0.1 mg/mL phosphatidylcholine/phosphatidylserine (80/20%) (1 µM), 1 µM phorbol dibutyrate in 50 µL of kinase buffer containing 50 mM Tris-HCl, pH 7.5, 4 mM MgCl2 and 10 mM β-mercaptoethanol. For the CAMK assay, 50 ng of CAMK and 2 µg Syntide-2 substrate in 50 µL kinase buffer were incubated with 0.1 mM MgCl2, 1 µCi of [γ-^32P] ATP, 70 µM ATP. 0.5 mM CaCl2 and 30 ng/µL calmodulin were preincubated for 15 min on ice and then added in the kinase reaction. The reactions were incubated at 30°C for 10 minutes and 25 µL of the reaction was spotted on Whatman P81 filter paper. The filter paper was washed 3 times in 0.5% phosphoric acid, air dried and counted using Beckman LS6500 multipurpose scintillation counter.

PKCδ, sequence (Q05655 whole entry): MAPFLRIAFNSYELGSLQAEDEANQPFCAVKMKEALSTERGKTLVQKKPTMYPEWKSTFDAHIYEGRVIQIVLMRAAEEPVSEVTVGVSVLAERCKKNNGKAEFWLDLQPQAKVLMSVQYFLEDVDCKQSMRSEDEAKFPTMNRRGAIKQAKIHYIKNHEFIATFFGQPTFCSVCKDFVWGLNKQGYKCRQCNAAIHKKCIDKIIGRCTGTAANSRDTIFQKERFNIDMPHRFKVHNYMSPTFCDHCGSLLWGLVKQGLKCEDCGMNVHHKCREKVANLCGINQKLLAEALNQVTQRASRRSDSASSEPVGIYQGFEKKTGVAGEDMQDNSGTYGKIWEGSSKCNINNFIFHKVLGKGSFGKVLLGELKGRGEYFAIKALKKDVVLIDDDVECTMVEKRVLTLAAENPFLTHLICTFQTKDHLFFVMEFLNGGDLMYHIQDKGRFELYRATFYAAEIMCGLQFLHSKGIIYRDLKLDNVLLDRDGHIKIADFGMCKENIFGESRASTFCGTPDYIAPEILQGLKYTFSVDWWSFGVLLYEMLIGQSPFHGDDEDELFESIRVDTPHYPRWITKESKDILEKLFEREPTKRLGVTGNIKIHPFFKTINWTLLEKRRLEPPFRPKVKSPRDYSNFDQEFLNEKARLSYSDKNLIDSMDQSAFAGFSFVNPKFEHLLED

inhibition at 10 µM | SMILES
~50% | Cc1cc(C)c2c(n1)sc1c(N)ncnc12 [Compound 172]
~50% | O=C1N=C(NCc2ccccc2)S/C1=C\c1ccc2ncccc2c1 [Compound 178]
~70% | O=C1N=C(N[C@H](CO)Cc2ccccc2)S/C1=C\c1ccc2ncccc2c1 [Compound 190]
~70% | O=C1N=C(N[C@@H](CO)Cc2ccccc2)S/C1=C\c1ccc2ncccc2c1 [Compound 198]

Same assay, conditions: read-out: inhibition of PKCδ

inhibition at 10 µM | SMILES
~50% | O=C1Nc2ccc(F)c3c(OCCO)cc(-c4ccc[nH]4)c1c23 [Compound 101]
~50% | COc1cccc(C(=O)c2sc(Nc3ccc(N4CCN(C(C)C)CC4)cc3)nc2N)c1 [Compound 104]
~70% | Fc1ccc(-c2c(-c3ccncc3)[nH]c3cccnc23)cc1 [Compound 116]

Target: p38δ (Homo sapiens, UniProt O15264)
Test: In vitro radiometric p38 kinase assay
Assay type: biochemical
Details: not given
Protocol: To confirm that p38 was indeed a target of the 4-azaindole, the inhibition of p38 by the twenty-eight PKD1 inhibitors was evaluated using an in vitro radiometric p38 kinase assay. […] Taken together, our data has identified a novel PKD1 inhibitor scaffold that is active for p38α, but not for PKC, CAMK and p38δ.
Phosphorylation of 3.5 µg of p38 substrate was detected in a reaction having 1 µCi [γ-^32P] ATP (Perkin Elmer Life Sciences), 50 µM ATP, 50 ng active recombinant p38 in 50 µL kinase buffer containing 25 mM Tris-HCl, pH 7.5, 10 mM MgCl2, 5 mM β-glycerophosphate, 0.1 mM Na3VO4 and 2 mM DTT. The reaction was incubated at 30°C for 10 minutes and 25 µL of the reaction was spotted on Whatman P81 filter paper. The filter paper was washed 3 times in 0.5% phosphoric acid, air dried and counted using Beckman LS6500 multipurpose scintillation counter. Percent p38 inhibition was graphed using GraphPad Prism software 5.0.

p38δ, sequence (O15264 whole entry): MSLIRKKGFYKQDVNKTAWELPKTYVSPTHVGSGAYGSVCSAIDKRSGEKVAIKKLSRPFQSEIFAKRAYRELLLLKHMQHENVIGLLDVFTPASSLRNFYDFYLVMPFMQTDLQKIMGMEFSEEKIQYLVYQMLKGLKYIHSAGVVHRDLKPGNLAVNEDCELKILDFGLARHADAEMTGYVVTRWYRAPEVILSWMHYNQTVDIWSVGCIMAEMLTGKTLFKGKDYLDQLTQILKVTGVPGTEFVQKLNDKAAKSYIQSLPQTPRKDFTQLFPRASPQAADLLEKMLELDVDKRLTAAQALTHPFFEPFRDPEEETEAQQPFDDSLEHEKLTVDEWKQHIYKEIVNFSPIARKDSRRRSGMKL

inhibition at 1 µM | SMILES
≥ 50% | COc1cc[nH]c1/C=C1\C(=O)Nc2ccc(F)c(C#CC3(O)CCNCC3)c21 [Compound 15]
≥ 50% | O=C1N=C(N[C@@H](CO)Cc2ccccc2)S/C1=C\c1ccc2ncccc2c1 [Compound 198]
